# Key:
# sedge, umbrella = experiment: Test D flooded paddy test; assay type: in vivo, Cyperus difformis; conditions: 250 g ai/ha, applied to paddy water, visual rating after 13 to 14 days, scale 0 to 100 (0 no effect, 100 complete control)
# Summary of the method: (§1)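 At the 2-leaf stage, floodwater 3 cm deep received the test compound; that depth persisted throughout. Plants scored visually 13 to 14 days on, 0 (no effect) to 100 (complete control), dash indicating no result.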
# green foxtail [1] = experiment: Test C postemergence; assay type: in vivo, Setaria viridis; conditions: 10 days, 0 to 100 scale (0 no effect, 100 complete control)
# Summary of the method: (§2)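 Greenhouse herbicide screen, 10-day duration. Test chemicals in solvent/surfactant blend were sprayed onto soil at sowing (pre) or onto 2–10 cm seedlings at one to two leaves (post); injury scored visually against controls, 0 no effect to 100 complete control.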
# ryegrass, Italian [2] = experiment: Test C preemergence; assay type: in vivo, Lolium multiflorum; conditions: 500 g ai/ha, preemergence; 0 to 100 scale (0 no effect, 100 complete control)
# Summary of the method: as §2
# wheat [3] = experiment: Test C preemergence; assay type: in vivo, Triticum aestivum
# Summary of the method: as §2
# kochia [4] = experiment: Test C preemergence; assay type: in vivo, Bassia scoparia
# Summary of the method: as §2
# pigweed, palmer [5] = experiment: Test C postemergence; assay type: in vivo, Amaranthus palmeri; conditions: 500 g ai/ha, postemergence, 10 days, 0 to 100 scale (0 no effect, 100 complete control)
# Summary of the method: as §2
# rice = experiment: Test D flooded paddy test; assay type: in vivo, Oryza sativa; conditions: 250 g ai/ha, applied to paddy water, visual rating after 13 to 14 days, scale 0 to 100 (0 no effect, 100 complete control)
# Summary of the method: as §1
# oat, wild [6] = experiment: Test C postemergence; assay type: in vivo, Avena fatua; conditions: 10 days, 0 to 100 scale (0 no effect, 100 complete control)
# Summary of the method: as §2
# blackgrass [7] = experiment: Test C postemergence; assay type: in vivo, Alopecurus myosuroides; conditions: 10 days, 0 to 100 scale (0 no effect, 100 complete control)
# Summary of the method: as §2
# ryegrass, Italian [8] = experiment: Test C postemergence; assay type: in vivo, Lolium multiflorum; conditions: 10 days, 0 to 100 scale (0 no effect, 100 complete control)
# Summary of the method: as §2
# barnyardgrass [9] = experiment: Test C postemergence; assay type: in vivo, Echinochloa crusgalli; conditions: 10 days, 0 to 100 scale (0 no effect, 100 complete control)
# Summary of the method: as §2
# wheat [10] = experiment: Test C postemergence; assay type: in vivo, Triticum aestivum; conditions: 10 days, 0 to 100 scale (0 no effect, 100 complete control)
# Summary of the method: as §2
# kochia [11] = experiment: Test C postemergence; assay type: in vivo, Bassia scoparia; conditions: 10 days, 0 to 100 scale (0 no effect, 100 complete control)
# Summary of the method: as §2
# ducksalad = experiment: Test D flooded paddy test; assay type: in vivo, Heteranthera limosa; conditions: 250 g ai/ha, applied to paddy water, visual rating after 13 to 14 days, scale 0 to 100 (0 no effect, 100 complete control)
# Summary of the method: as §1
# galium = experiment: Test C postemergence; assay type: in vivo, Galium aparine; conditions: 10 days, 0 to 100 scale (0 no effect, 100 complete control)
# Summary of the method: as §2
# soybean [12] = experiment: Test C postemergence; assay type: in vivo, Glycine max; conditions: 10 days, 0 to 100 scale (0 no effect, 100 complete control)
# Summary of the method: as §2
# green foxtail [13] = experiment: Test C preemergence; assay type: in vivo, Setaria viridis
# Summary of the method: as §2
# horseweed = experiment: Test C postemergence; assay type: in vivo, Erigeron canadensis; conditions: 10 days, 0 to 100 scale (0 no effect, 100 complete control)
# Summary of the method: as §2
# ragweed [14] = experiment: Test C postemergence; assay type: in vivo, Ambrosia artemisiifolia; conditions: 10 days, 0 to 100 scale (0 no effect, 100 complete control)
# Summary of the method: as §2
# blackgrass [15] = experiment: Test C preemergence; assay type: in vivo, Alopecurus myosuroides
# Summary of the method: as §2
# barnyardgrass [16] = experiment: Test D flooded paddy test; assay type: in vivo, Echinochloa crus-galli; conditions: 250 g ai/ha, applied to paddy water, visual rating after 13 to 14 days, scale 0 to 100 (0 no effect, 100 complete control)
# Summary of the method: as §1
# corn [17] = experiment: Test C postemergence; assay type: in vivo, Zea mays; conditions: 10 days, 0 to 100 scale (0 no effect, 100 complete control)
# Summary of the method: as §2
# corn [18] = experiment: Test C preemergence; assay type: in vivo, Zea mays
# Summary of the method: as §2
# oat, wild [19] = experiment: Test C preemergence; assay type: in vivo, Avena fatua
# Summary of the method: as §2
# barnyardgrass [20] = experiment: Test C preemergence; assay type: in vivo, Echinochloa crusgalli
# Summary of the method: as §2
# ragweed [21] = experiment: Test C preemergence; assay type: in vivo, Ambrosia artemisiifolia
# Summary of the method: as §2
# soybean [22] = experiment: Test C preemergence; assay type: in vivo, Glycine max
# Summary of the method: as §2
# pigweed, palmer [23] = experiment: Test C preemergence; assay type: in vivo, Amaranthus palmeri; conditions: 500 g ai/ha, preemergence; 0 to 100 scale (0 no effect, 100 complete control)
# Summary of the method: as §2
# [24] = 500 g ai/ha, preemergence, 0 to 100 scale (0 no effect, 100 complete control)
# [25] = Preemergence, 125 g ai/ha, 0 to 100 scale, 0 no effect, 100 complete control
smiles,measurement,setting,value
Cc1ncc(-c2cccc(C(=O)N3C[C@H](C)Oc4c(Cl)cccc43)c2)o1 [Compound 352],"Plant response rating, Sedge, Umbrella (Flood)","sedge, umbrella",0
same,"Plant response rating, Foxtail, Green","green foxtail [1]; 500 g ai/ha, postemergence",10
same,"Plant response rating, Foxtail, Green","green foxtail [1]; Postemergence, 125 g ai/ha",20
same,"Ryegrass, Italian plant response rating","ryegrass, Italian [2]",40
same,Wheat plant response rating,wheat [3]; [24],0
same,"Plant response rating, Wheat",wheat [3]; [25],0
same,Kochia plant response rating,kochia [4]; [24],0
same,"Plant response rating, Kochia",kochia [4]; [25],0
same,"Plant response rating, Pigweed, Palmer","pigweed, palmer [5]",20
same,"Plant response rating, Rice (Flood)",rice,0
same,"Plant response rating, Oat, Wild","oat, wild [6]; 500 g ai/ha, postemergence",0
same,"Plant response rating, Oat, Wild","oat, wild [6]; Postemergence, 125 g ai/ha",0
same,"Plant response rating, Blackgrass","blackgrass [7]; 500 g ai/ha, postemergence",0
same,"Plant response rating, Blackgrass","blackgrass [7]; Postemergence, 125 g ai/ha",0
same,"Plant response rating, Ryegrass, Italian","ryegrass, Italian [8]; 500 g ai/ha, postemergence",10
same,"Plant response rating, Ryegrass, Italian","ryegrass, Italian [8]; Postemergence, 125 g ai/ha",10
same,"Plant response rating, Barnyardgrass","barnyardgrass [9]; 500 g ai/ha, postemergence",10
same,"Plant response rating, Barnyardgrass","barnyardgrass [9]; Postemergence, 125 g ai/ha",10
same,"Plant response rating, Wheat","wheat [10]; 500 g ai/ha, postemergence",10
same,"Plant response rating, Wheat","wheat [10]; Postemergence, 125 g ai/ha",10
same,"Plant response rating, Kochia","kochia [11]; 500 g ai/ha, postemergence",50
same,"Plant response rating, Kochia","kochia [11]; Postemergence, 125 g ai/ha",40
same,"Plant response rating, Ducksalad (Flood)",ducksalad,0
same,"Plant response rating, Galium","galium; 500 g ai/ha, postemergence",50
same,"Plant response rating, Galium","galium; Postemergence, 125 g ai/ha",60
same,"Plant response rating, Soybean","soybean [12]; 500 g ai/ha, postemergence",90
same,"Plant response rating, Soybean","soybean [12]; Postemergence, 125 g ai/ha",80
same,"Foxtail, Green plant response rating",green foxtail [13]; [24],40
same,"Plant response rating, Foxtail, Green",green foxtail [13]; [25],0
same,"Plant response rating, Horseweed","horseweed; 500 g ai/ha, postemergence",10
same,"Plant response rating, Horseweed","horseweed; Postemergence, 125 g ai/ha",0
same,"Plant response rating, Ragweed","ragweed [14]; 500 g ai/ha, postemergence",20
same,"Plant response rating, Ragweed","ragweed [14]; Postemergence, 125 g ai/ha",20
same,Blackgrass plant response rating,blackgrass [15]; [24],0
same,"Plant response rating, Blackgrass",blackgrass [15]; [25],0
same,"Plant response rating, Barnyardgrass (Flood)",barnyardgrass [16],0
same,"Plant response rating, Corn","corn [17]; 500 g ai/ha, postemergence",0
same,"Plant response rating, Corn","corn [17]; Postemergence, 125 g ai/ha",0
same,Corn plant response rating,corn [18]; [24],0
same,"Plant response rating, Corn",corn [18]; [25],0
same,"Oat, Wild plant response rating","oat, wild [19]; [24]",0
same,"Plant response rating, Oat, Wild","oat, wild [19]; [25]",0
same,Barnyardgrass plant response rating,barnyardgrass [20]; [24],0
same,"Plant response rating, Barnyardgrass",barnyardgrass [20]; [25],0
same,Ragweed plant response rating,ragweed [21]; [24],0
same,"Plant response rating, Ragweed",ragweed [21]; [25],40
same,Soybean plant response rating,soybean [22]; [24],0
same,"Plant response rating, Soybean",soybean [22]; [25],0
same,"Pigweed, Palmer plant response rating","pigweed, palmer [23]",10
